Assay: Solution calorimetry (Thermometrics Microcalorimeter) in ethanol at 25° C.
Type: physicochemical
Details: for Heat of Solution: in ethanol at 25° C.
Protocol: Solution calorimetry was determined using a Thermometrics Microcalorimeter in ethanol at 25° C. The solubilities were likewise determined at 25° C.

Row | Structure (SMILES) | Relative stability of the polymorph forms (concluded from the data, particularly the heat of solution) | Heat of Solution
1 | C/C(=C\c1csc(C)n1)[C@@H]1CC2O[C@]2(C)CCC[C@H](C)[C@H](O)[C@@H](C)C(=O)C(C)(C)[C@@H](O)CC(=O)N1 (single isomer, unassigned) [Form A, [1S-[1R*,3R*(E),7R*,10S*,11R*,12R*,16S*]]-7,11-Dihydroxy-8,8,10,12,16-pentamethyl-3-[1-methyl-2-(2-methyl-4-thiazolyl)ethenyl]-4-aza-17-oxabicyclo[14.1.0]heptadecane-5,9-dione, Form A] | more stable | 20.6 kJ/mol
2 | C/C(=C\c1csc(C)n1)[C@@H]1CC2O[C@]2(C)CCC[C@H](C)[C@H](O)[C@@H](C)C(=O)C(C)(C)[C@@H](O)CC(=O)N1 (single isomer, unassigned) [Form B, [1S-[1R*,3R*(E),7R*,10S*,11R*,12R*,16S*]]-7,11-Dihydroxy-8,8,10,12,16-pentamethyl-3-[1-methyl-2-(2-methyl-4-thiazolyl)ethenyl]-4-aza-17-oxabicyclo[14.1.0]heptadecane-5,9-dione, Form B] | – | 9.86 kJ/mol

Reference: patent US6982276B2, “Polymorphs of an epothilone analog” (Bristol-Myers Squibb Company, priority 2000, dated 2006)
